The record followed here is PubChem BioAssay AID2253 (Southern Research Specialized Biocontainment Screening …, 2010).

In this assay the test system is THP-1 viability, CellTiter-Glo luminescence, 72 h. Description: human monocytic cell viability reduction – S. typhimurium screen hits, cytotoxicity control for Salmonella PhoP regulon inhibitors, dose response (AID 2253).

Molecules are shown by their SMILES.

One may read the EC50 as the concentration at which the effect is half-maximal. Consider `CCn1c2ccccc2c2cc(N)ccc21`, for which the EC50 was 16.1 µM.

`Oc1ccc(CN2CCCc3ccccc32)c2cccnc12`: the EC50 is 3.37 µM.

`CCCCCCCCCC[N+](C)(C)CC/C=C1/c2ccccc2Sc2ccc(Cl)cc21`: the EC50 was 1.67 µM.

Take `O=C(NC(NC(=S)Nc1ccc(Cl)c(Cl)c1)C(Cl)(Cl)Cl)c1ccco1` (centres undefined): the EC50 is 23.5 µM.

In the case of `Cc1cc(/C=N/n2c(COc3ccccc3)nc3ccccc3c2=O)c(O)c([N+](=O)[O-])c1`, the EC50 is 4.71 µM.

`O=C(c1[nH]ncc1-c1ccc(Cl)cc1)C1CO1` (centres undefined): the EC50 is 13.3 µM.

For `Nc1cc(Cl)c2nonc2c1[N+](=O)[O-]`, the EC50 is 2.24 µM.

In the case of `Cc1cc(C(=O)N/N=C/c2cc(Br)cc([N+](=O)[O-])c2O)c2ccccc2n1`, the EC50 was 23 µM.

On to `C/C(=C\C(=O)c1cccnc1)Nc1ccc(O)cc1`, for which the EC50 is 47.6 µM.

For `CCOc1cc(/C=N/N=C(N)N)ccc1OCc1ccc(Cl)cc1`, the EC50 is 5.19 µM.

Take `COc1ccccc1CNCC(O)Cn1c2ccccc2c2ccccc21` (centres undefined): the EC50 was 8.21 µM.

Turning to `O=C(Nc1ccc2snnc2c1)Nc1cccc2ccccc12`, the EC50 was 33.7 µM.

For the compound `OC(CNCCc1ccccc1)COc1ccc(OCC(O)CNCCc2ccccc2)cc1` (centres undefined), the EC50 was 6 µM.

Consider `c1ccc(CNc2c3c(nc4ccccc24)CCC3)cc1`, for which the EC50 is 11.3 µM.

In the case of `COc1cccc(-c2nnc3sc(-c4ccc(C)cc4)nn23)c1`, the EC50 was 44.3 µM.

In the case of `C=CCNc1ncnc2c1[nH]c1ccc(Cl)cc12`, the EC50 was 12.2 µM.

`C[CH2][Hg][S]c1ccccc1C(=O)O`: the EC50 is 0.71 µM.

In the case of `O=C(CSc1nc(Nc2ccccc2)nc(N2CCOCC2)n1)Nc1ccc([N+](=O)[O-])cc1`, the EC50 is 37.1 µM.

For the compound `CN1CCN(C(c2ccc(Cl)cc2)c2cc(Cl)c3cccnc3c2O)CC1` (centres undefined), the EC50 is 1.66 µM.

For the compound `O=S(=O)(Nc1ccc2ccccc2c1)c1ccccc1`, the EC50 was 47.2 µM.

In the case of `CCN(CC)S(=O)(=O)c1cccc(NC(=O)Nc2cccc(C(F)(F)F)c2)c1`, the EC50 was 5.09 µM.

Regarding `O=S1(=O)CCC(NC(=S)SCCOc2ccccc2)C1` (centres undefined), the EC50 is 16.2 µM.

For `O=c1c(Br)c(Br)cnn1-c1ccccc1`, the EC50 was 1.27 µM.

For `CCCCOc1ccc(S(=O)(=O)NNC(=O)C2Cc3c(ccc4ccccc34)O2)cc1` (centres undefined), the EC50 was 42.6 µM.

In the case of `Cc1ccc2cccnc2c1NC(=S)NC(=O)c1ccccc1`, the EC50 was 25.2 µM.

For the compound `COc1ccccc1/C=C1\CCCC2=C1Nc1nnnn1C2c1ccccc1OC` (centres undefined), the EC50 was 19.6 µM.

`O=[N+]([O-])c1cc(CN2CCCC2)c2cccnc2c1O`: the EC50 was 41.2 µM.

Take `Oc1ccc(/C=N/NC(=S)Nc2cccnc2)c(O)c1`: the EC50 was 3.21 µM.

In the case of `O=C(/C=C/c1ccco1)NC(=S)Nc1ccc(N2CCCC2)cc1`, the EC50 is 9.59 µM.

`CCN(CC)c1ccc(/C=N/Nc2nc3ccccc3[nH]2)c(O)c1`: the EC50 was 2.7 µM.

Regarding `c1csc(C2Nc3ccccc3-c3nc4ccccc4n32)c1` (centres undefined), the EC50 was 33.7 µM.

For the compound `NCC12CC3CC(C1)CC(c1ccc(Br)cc1)(C3)C2`, the EC50 was 8.36 µM.

Take `CN(C)CCCN(C(=O)CCc1ccccc1)c1nc2ccc(Cl)cc2s1`: the EC50 was 25.9 µM.

For the compound `Cc1cc(C)n(-c2nc(NCCN(C)C)c3c4c(sc3n2)CCCC4)n1`, the EC50 was 4.63 µM.

As to `Cc1cc(Nc2ccccc2)nc2cc(O)ccc12`, the EC50 is 36.6 µM.

As for `Cc1ccc(-c2csc(NC(=O)C[n+]3cc(-c4ccc(C)cc4)n4c3CCC4)n2)cc1`, the EC50 is 8.54 µM.

Regarding `CCNC(=S)NNC(=O)c1ccccn1`, the EC50 was 25.5 µM.

As for `Oc1ccc(/C=N/Nc2ncc(Br)cn2)c(O)c1`, the EC50 was 3.1 µM.

For the compound `CCCCn1c(/N=C/c2c[nH]c3ccccc23)nc2ccccc21`, the EC50 is 27.2 µM.

On to `O=C(N/N=C/c1cc(Cl)ccc1O)c1cccnc1`, for which the EC50 was 2.08 µM.

For `O=C(Cc1cccs1)Nc1cccc(-c2nc3cc4ccccc4cc3[nH]2)c1`, the EC50 is 12.5 µM.

Regarding `C[C@H]1c2cccc(O)c2C(O)=C2C(=O)[C@]3(O)C(O)=C(C(N)=O)C(=O)[C@@H](N(C)C)C3[C@@H](O)C21` (some centres undefined), the EC50 was 30.7 µM.

In the case of `Cc1ccc(C(c2cc(Cl)c3cccnc3c2O)N2CCN(C)CC2)cc1` (centres undefined), the EC50 is 1.89 µM.

For `O=C1c2ccccc2C2=Nc3ccccc3SC(c3cccc(F)c3)C12` (centres undefined), the EC50 was 8.95 µM.

For `CCOC(=O)Cc1csc(NC(=O)NC2(C(F)(F)F)Oc3cc(Cl)c(Cl)cc3O2)n1`, the EC50 is 26 µM.

As for `Cc1ccc(-n2sc3ccccc3c2=O)cc1S(=O)(=O)N1CCCCC1`, the EC50 is 2.75 µM.

As for `Clc1ccc(OCCN2CCN(c3ncnc4sccc34)CC2)cc1`, the concentration for a half-maximal effect (EC50) is < 0.1 µM.

With `OCc1ccc(O)c2ncccc12`, the EC50 was 3.26 µM.

Turning to `Clc1ccc(-c2c[n+](Cc3ccc(Cl)cc3Cl)c3n2CCCCC3)cc1`, the EC50 is 3.61 µM.

`O=C(Nc1cccc(Cl)c1)C1C2CCC3C(CCC21)C3(Cl)Cl` (centres undefined): the EC50 is 27.2 µM.

Take `NC(=NCCc1c[nH]c2ccccc12)NC(=O)c1ccc(F)cc1`: the concentration giving a half-maximal response (EC50) was 36.4 µM.

With `Oc1cccc2ccc(Nc3ccccn3)nc12`, the EC50 is 2.16 µM.

For the compound `CCOc1ccccc1NS(=O)(=O)c1ccc(Br)s1`, the EC50 is 40.5 µM.

With `O=C(Nc1ccc(Cl)c(Cl)c1)Nc1ccccc1O`, the EC50 is 21.1 µM.

As for `CCOC(=O)c1sc(NC(=O)Nc2ccc(Cl)cc2)cc1C`, the EC50 is 10.3 µM.

For the compound `Cc1ccccc1NC(=O)CCC(=O)N/N=C/c1cc([N+](=O)[O-])ccc1O`, the EC50 is 19.5 µM.

In the case of `COc1cc(NC(=O)Nc2cccc(Cl)c2)c(OC)cc1NC(=O)CN1CCCCC1`, the concentration giving a half-maximal response (EC50) is 15.5 µM.

For `CC(O)CNCCNCc1c(OCc2ccccc2)ccc2ccccc12` (centres undefined), the EC50 was 14.2 µM.

Consider `Oc1ccc(C=Nc2cccc3ncccc23)c(O)c1`, for which the EC50 was 43.3 µM.

As for `CCc1ccc(NC(=O)C[n+]2cc(-c3ccc(C)cc3)n3c2CCC3)cc1`, the EC50 is 5.74 µM.

As to `CC(C)c1ccc(NC(=O)N(CCc2nc3ccccc3[nH]2)C2CCCC2)cc1`, the concentration for a half-maximal effect (EC50) was 43.1 µM.

On to `Cc1ccc(O)c(-c2cc(-c3ccccc3C)[nH]n2)c1`, for which the EC50 is 19.9 µM.

As for `Cc1cc(-c2csc(N)n2)c(C)n1-c1ccccc1`, the EC50 was 16.9 µM.

With `COc1ccccc1-c1c(C#N)c(N)nc2c1CCc1ccccc1-2`, the EC50 was 13.2 µM.

In the case of `C/C(=N\Nc1nc2ccccc2[nH]1)c1ccc(Cl)s1`, the EC50 is 32.6 µM.

Turning to `COc1ccc(CNC[C@@H](CCCCN(C)Cc2ccc(OC)cc2)N2C[C@H](c3ccccc3)N(CCc3ccc(Cl)c(Cl)c3)C(=O)C2=O)cc1`, the EC50 is 3.93 µM.

For `COc1ccc(OCCSc2nnc3sc4ccccc4n23)cc1`, the EC50 was 44.1 µM.

Consider `COc1cc([N+](=O)[O-])cc(/C=N\NC(=O)C2COc3ccccc3O2)c1O` (centres undefined), for which the EC50 was 19.6 µM.

Regarding `CC(=O)NC(c1cccs1)c1cc([N+](=O)[O-])c2cccnc2c1O` (centres undefined), the EC50 was 10.1 µM.

For the compound `Clc1ccc(C[n+]2cc(-c3ccc(Cl)cc3)n3c2CCC3)cc1`, the EC50 is 17.7 µM.

`CC(C)CCNC(=S)Nc1ccc([N+](=O)[O-])cc1`: the EC50 was 16.5 µM.

For `CCCCCCCCCCCCCCCC[N+](C)(C)C`, the EC50 was 0.79 µM.

As to `CC(=O)NC(c1ccc(C)cc1)c1cc([N+](=O)[O-])c2cccnc2c1O` (centres undefined), the EC50 was 6.41 µM.

`O=[N+]([O-])c1cc(O)c2ncccc2c1`: the EC50 is 6.48 µM.
